Source: patent US20050004038A1, “Bivalent inhibitors of Glutathione-S-Transferases” (priority 2003, published 2005)
Like-named read-outs stand apart in the source and are kept apart here.

Experiments:
[1] = target: T1, human glutathione S-transferase P1-1 (GSTP1-1) (Homo sapiens, UniProt P09211); assay: CDNB assay of GST activity and inhibition, GST P1-1; format: biochemical; settings: first value of the cell GSTP1-1/GSTA1-1; CDNB assay, 20 nM GST
T1 construct: made in house; host or cells: E. coli
T1 sequence (P09211 2-210 limits assumed): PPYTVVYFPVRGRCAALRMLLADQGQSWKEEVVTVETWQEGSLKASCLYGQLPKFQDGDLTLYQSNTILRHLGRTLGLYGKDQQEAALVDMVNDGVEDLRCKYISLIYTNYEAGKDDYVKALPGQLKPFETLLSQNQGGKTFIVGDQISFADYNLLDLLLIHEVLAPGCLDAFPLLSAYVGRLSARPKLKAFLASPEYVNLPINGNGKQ
Procedure: (§1) GST isozymes. […] The enzyme was incubated with 10 mM dithiothreitol to ensure complete reduction of cysteine residues, followed by extensive dialysis to remove the reducing agent. […] Plasmodium GST (pGST) was a gift from Dr. Katja Becker (Justus Liebig University of Giessen), and murine GSTP and GSTA were gifts from Dr. Dave Eaton (University of Washington). Except where otherwise stated (i.e. testing of pGST in Example 6.4.5 and testing of murine GSTs in Example 6.4.7), GST isozymes tested were from human.
(§2) GST assays. Assays of GST activity and inhibition were performed with chloro-2,4-dinitrobenzene (CDNB) as the electrophilic substrate. Except where otherwise stated, GST concentration was 20 nM. […] Rates were determined by measuring absorption at 340 nm (λmax of glutathione-dinitrobenzene) for 1 minute on a Beckman DU 7400 spectrophotometer. For IC50 determinations, assays were performed at inhibitor concentrations ranging over at least […] (from 100-fold above the IC50 to 100-fold below). Data were fit to a sigmoidal dose-response function using GraphPad Prism to determine the 50% inhibitory concentration.

[2] = target: T2, human glutathione S-transferase A1-1 (GSTA1-1) (Homo sapiens, UniProt P08263); assay: CDNB assay of GST activity and inhibition, GST A1-1; format: biochemical; settings: second value of the cell GSTP1-1/GSTA1-1, 20 nM GST
T2 construct: made in house; host or cells: E. coli
T2 sequence (P08263 1-222): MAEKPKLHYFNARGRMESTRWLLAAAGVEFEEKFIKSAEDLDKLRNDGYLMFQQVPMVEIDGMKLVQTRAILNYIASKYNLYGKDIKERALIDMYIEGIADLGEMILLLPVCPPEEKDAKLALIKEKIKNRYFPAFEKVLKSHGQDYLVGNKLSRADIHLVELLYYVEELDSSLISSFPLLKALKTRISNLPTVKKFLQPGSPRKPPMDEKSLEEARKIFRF
Procedure: as §1, §2

Plasmodium GST (pGST) = target: T3, Plasmodium GST (pGST) (Plasmodium falciparum, UniProt Q8ILQ7); assay: CDNB assay, Plasmodium GST; format: biochemical
T3 construct: gift from Dr. Katja Becker (Justus Liebig University of Giessen)
T3 sequence (Q8ILQ7 1-211): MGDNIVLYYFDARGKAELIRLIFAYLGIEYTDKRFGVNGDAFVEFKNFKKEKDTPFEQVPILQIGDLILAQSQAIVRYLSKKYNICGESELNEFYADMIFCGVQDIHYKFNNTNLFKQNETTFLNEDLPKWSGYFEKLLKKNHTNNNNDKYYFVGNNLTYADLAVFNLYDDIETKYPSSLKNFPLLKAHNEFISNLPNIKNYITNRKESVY
Procedure: as §1, §2
The IC50 values for pGST were determined for the bivalent compounds from Tables III and IV using the CDNB assay.

murine GSTP = target: T4, murine GSTP (Mus musculus, UniProt P19157); assay: CDNB assay, murine GSTP; format: biochemical
T4 construct: gift from Dr. Dave Eaton (University of Washington)
T4 sequence (P19157 2-210 limits assumed): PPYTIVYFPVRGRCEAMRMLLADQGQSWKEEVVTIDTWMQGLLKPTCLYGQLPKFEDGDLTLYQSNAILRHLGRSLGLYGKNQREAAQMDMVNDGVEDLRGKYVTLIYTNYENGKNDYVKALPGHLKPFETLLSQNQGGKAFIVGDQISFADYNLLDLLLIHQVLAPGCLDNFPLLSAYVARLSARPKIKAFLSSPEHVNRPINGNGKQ
Procedure: as §1, §2

[3] = tested on: chloroquine resistant Plasmodium falciparum strain Dd2; assay: Parasite growth inhibition, ring stages, 48 hours; format: cell-based; settings: single dose, strain Dd2, 48 hours
Procedure: (§3) A single dose of compound IVg^ was added to ring stages of chloroquine resistant Plasmodium falciparum strain Dd2 and incubated for 48 hours. […] An isobologram analysis was performed in two different chloroquine resistant parasites comparing IVg^ with chloroquine (AN143 with a PNG/South America genotype and INDO21 with the Indonesia genotype).

[4] = tested on: chloroquine resistant parasites AN143 and INDO21; assay: Isobologram analysis with chloroquine; format: cell-based, Plasmodium falciparum
Procedure: as §3

[5] = tested on: human kidney 293 fibroblasts transfected with the IRES vector (no GST P1-1); assay: Cell killing by hypericin photodynamic treatment, IRES vector control cells; format: cell-based
Procedure: (§4) Cells used in the assay were human kidney 293 fibroblasts transfected with the IRES vector plus and minus the coding region for human GST P1-1. Cells were cultured in DMEM supplemented with 10% FBS and 1% penicillin-streptomycin and maintained at 37° C. and 5% CO2.
(§5) Once the cells reached 80% confluency, the original media was removed and replaced with either (a) fresh media alone; (b) fresh media containing 1 uM hypericin (a porphyrin analogue employed in photodynamic cancer therapy), (c) the desired concentration of GST inhibitor IVg^, and (d) 1 μM hypericin plus the inhibitor 1 μM IVg^. The cells were incubated for a further 24 hours, in the dark, to allow the hypericin to be incorporated. The media from each plate was then removed and placed into a corresponding 15 ml centrifuge tube. This media is saved to monitor the “floater” cells that may have sloughed off during manipulations and treatment. The attached cells were washed two times with 1×PBS and fresh media is added back to the plates. The plates which were incubated overnight in the presence of hypericin were overlayed with DMEM without the phenol red indicator dye or 1×PBS supplemented with 10% FBS. […]
(§6) Following light treatment, cells were trypsinized, removed to their corresponding 15 ml tubes and maintained on ice until analyzed via flow cytometry.

[6] = tested on: human kidney 293 fibroblasts overexpressing human GST P1-1; assay: Cell killing by hypericin photodynamic treatment, GST P1-1 overexpressing cells; format: cell-based; settings: GSTP cells
Procedure: as §4, §5, §6

[7] = tested on: human kidney 293 fibroblasts; assay: IC50 of the bivalent inhibitor alone in the cell line; format: cell-based; settings: +/−0.2 SD, read-out: IC50 of inhibitor for the cells
Procedure: as §4
Once the cells reached 80% confluency, the original media was removed and replaced with either (a) fresh media alone; (b) fresh media containing 1 uM hypericin (a porphyrin analogue employed in photodynamic cancer therapy), (c) the desired concentration of GST inhibitor IVg^, and (d) 1 μM hypericin plus the inhibitor 1 μM IVg^. The cells were incubated for a further 24 hours, in the dark, to allow the hypericin to be incorporated. The media from each plate was then removed and placed into a corresponding 15 ml centrifuge tube. This media is saved to monitor the “floater” cells that may have sloughed off during manipulations and treatment. The attached cells were washed two times with 1×PBS and fresh media is added back to the plates. The plates which were incubated overnight in the presence of hypericin were overlayed with DMEM without the phenol red indicator dye or 1×PBS supplemented with 10% FBS.
as §6

GSTA1-1 = target: T5, GSTA1-1 (Homo sapiens, UniProt P08263); assay: GSH conjugation assay, absorbance changes at 270 nm, GSTA1-1; format: biochemical; settings: absorbance at 270 nm
T5 construct: made in house; host or cells: E. coli
T5 sequence (P08263 1-222): T2 sequence (P08263 1-222)
Source text: (§7) Since EA is known to be enzymatically conjugated to GSH by GSTs, these bivalent inhibitors might be predicted to be potential substrates for GSTA1-1 or GSTP1-1, such that they would also be catalytically conjugated with GSH.

GSTP1-1 = target: T6, GSTP1-1 (Homo sapiens, UniProt P09211); assay: GSH conjugation assay, absorbance changes at 270 nm, GSTP1-1; format: biochemical; settings: absorbance at 270 nm
T6 construct: made in house; host or cells: E. coli
T6 sequence (P09211 2-210 limits assumed): as the sequence (P09211 2-210 limits assumed) above
Source text: as §7

[8] = target: T2, human glutathione S-transferase A1-1 (GSTA1-1); settings: from the prior art (Ploemen et al.); cited from earlier work
[9] = CDNB assay, read-out: IC50 pGST
[10] = 1 μM inhibitor + 1 μM hypericin + 590 nm light
[11] = 1 uM hypericin + 590 nm light, no inhibitor

What does the source list for C=C(CC)C(=O)c1ccc(OCC(=O)NCCCCCC(=O)NCc2cccc(CNC(=O)CCCCCNC(=O)COc3ccc(C(=O)C(=C)CC)c(Cl)c3Cl)c2)c(Cl)c1Cl [IVg^]?
IC50 [1]: 27 nM; IC50 [2]: 64 nM; IC50 (Plasmodium GST (pGST); [9]): ~1500 nM; IC50 (murine GSTP): 18 nM; EC50 [3]: 412 nM; synergy with chloroquine [4]: No evidence of synergy; Mean % Cell Death [5, 10]: 20.27%; Mean % Cell Death [6, 10]: 22.53%; IC50 [7]: 1130 nM

Which IC50 [1] does the source give for C=C(CC)C(=O)c1ccc(OCC(=O)NCc2cccc(CNC(=O)COc3ccc(C(=O)C(=C)CC)c(Cl)c3Cl)c2)c(Cl)c1Cl [IVc^] here?
The IC50 was 995 nM.

And the IC50 [2]?
The IC50 was 25 nM.

What about the IC50 (murine GSTP) of the same compound?
The IC50 was 990 nM.

Which “Mean % Cell Death” value [5, 11] does the source give for Cc1cc(O)c2c(=O)c3c(O)cc(O)c4c5c(O)cc(O)c6c(=O)c7c(O)cc(C)c8c1c2c(c34)c(c78)c65 [hypericin, reference compound] here?
The value was 24.63%.

What about the “Mean % Cell Death” value [6, 11] of the same compound?
Its value is 11.27%.

With C=C(CC)C(=O)c1ccc(OCC(=O)NCCCCCC(=O)NCc2cc(CNC(=O)CCCCCNC(=O)COc3ccc(C(=O)C(=C)CC)c(Cl)c3Cl)cc(C(N)=O)c2)c(Cl)c1Cl [IVg] as the compound, how does the IC50 [1] read?
Its IC50 is 46.1 nM.

What about the IC50 [2] of the same compound?
Its IC50 is 40.2 nM.

What about the IC50 (Plasmodium GST (pGST); [9]) of the same compound?
The IC50 was ~3300 nM.

What about the “GSH conjugation by GSTA1-1” value (GSTA1-1) of the same compound?
Its value is “no GSH conjugation”.

What about the “GSH conjugation by GSTP1-1” value (GSTP1-1) of the same compound?
Its value is “no GSH conjugation”.

Which results are given for C=C(CC)C(=O)c1ccc(OCC(=O)O)c(Cl)c1Cl [IVk*, ethacrynic acid, reference compound]?
GSH conjugation by GSTA1-1 (GSTA1-1): readily conjugated to GSH; IC50 [8]: 5000 nM

Which results are given for C=C(CC)C(=O)c1ccc(OCC(=O)NCCCC(=O)NCCCC(=O)NCCCC(=O)NCc2cc(CNC(=O)CCCNC(=O)CCCNC(=O)CCCNC(=O)COc3ccc(C(=O)C(=C)CC)c(Cl)c3Cl)cc(C(N)=O)c2)c(Cl)c1Cl [IVi]?
IC50 [1]: 142 nM; IC50 [2]: 96.5 nM; IC50 (Plasmodium GST (pGST)): ~5500 nM
